According to ChEMBL document CHEMBL1135151, “Preparation, characterization, molecular modeling and in vitro activity of paclitaxel-cyclodextrin complexes” (2002):

How the values were obtained:
Assay type in all cases: functional, Homo sapiens
DU-145 [1] = assay: Tested for in vitro activity against DU 145 cells at PTX dilution factor 1:500, expressed as percentage of cellular survival as a function of drug dilution
DU-145 [2] = assay: Tested for in vitro activity against DU 145 cells at PTX dilution factor 1:100, expressed as percentage of cellular survival as a function of drug dilution
DU-145 [3] = assay: Tested for in vitro activity against DU 145 cells at PTX dilution factor 1:50, expressed as percentage of cellular survival as a function of drug dilution
DU-145 [4] = assay: Tested for in vitro activity against DU 145 cells at PTX dilution factor 1:1000, expressed as percentage of cellular survival as a function of drug dilution

SMILES | Survival (DU-145 [1]) | Survival (DU-145 [2]) | Survival (DU-145 [3]) | Survival (DU-145 [4])
CC(=O)O[C@H]1C(=O)[C@@]2(C)C([C@H](OC(=O)c3ccccc3)[C@]3(O)C[C@H](OC(=O)[C@H](O)[C@@H](NC(=O)c4ccccc4)c4ccccc4)C(C)=C1C3(C)C)[C@]1(OC(C)=O)CO[C@@H]1C[C@@H]2O.COCC1O[C@H]2OC3C(COC)O[C@@H](OC4C(COC)O[C@@H](OC5C(COC)O[C@@H](OC6C(COC)O[C@@H](OC7C(COC)O[C@@H](OC8C(COC)O[C@@H](OC1[C@@H](O)[C@@H]2OC)[C@@H](OC)[C@H]8O)[C@@H](OC)[C@H]7O)[C@@H](O)[C@H]6OC)[C@@H](OC)[C@H]5O)[C@@H](OC)[C@H]4O)[C@@H](OC)[C@H]3O (stereo partly drawn) | 51.1% | 46.3% | 35.2% | 61.3%
COCC1O[C@H]2OC3C(COC)O[C@@H](OC4C(COC)O[C@@H](OC5C(COC)O[C@@H](OC6C(COC)O[C@@H](OC7C(COC)O[C@@H](OC8C(COC)O[C@@H](OC1[C@@H](OC)[C@@H]2OC)[C@@H](OC)[C@H]8OC)[C@@H](OC)[C@H]7OC)[C@@H](OC)[C@H]6OC)[C@@H](OC)[C@H]5OC)[C@@H](OC)[C@H]4OC)[C@@H](OC)[C@H]3OC (stereo partly drawn) | 87% | 85.5% | 79.7% | 90.1%
CC(=O)O[C@H]1C(=O)[C@@]2(C)C([C@H](OC(=O)c3ccccc3)[C@]3(O)C[C@H](OC(=O)[C@H](O)[C@@H](NC(=O)c4ccccc4)c4ccccc4)C(C)=C1C3(C)C)[C@]1(OC(C)=O)CO[C@@H]1C[C@@H]2O.COCC1O[C@H]2OC3C(COC)O[C@@H](OC4C(COC)O[C@@H](OC5C(COC)O[C@@H](OC6C(COC)O[C@@H](OC7C(COC)O[C@@H](OC8C(COC)O[C@@H](OC1[C@@H](OC)[C@@H]2OC)[C@@H](OC)[C@H]8OC)[C@@H](OC)[C@H]7OC)[C@@H](OC)[C@H]6OC)[C@@H](OC)[C@H]5OC)[C@@H](OC)[C@H]4OC)[C@@H](OC)[C@H]3OC (stereo partly drawn) | 68.7% | 61.3% | 43.2% | 69.3%
CC(=O)O[C@H]1C(=O)[C@@]2(C)[C@H]([C@H](OC(=O)c3ccccc3)[C@]3(O)C[C@H](OC(=O)[C@H](O)[C@@H](NC(=O)c4ccccc4)c4ccccc4)C(C)=C1C3(C)C)[C@]1(OC(C)=O)CO[C@@H]1C[C@@H]2O [PACLITAXEL] | 43.3% | 12.1% | 11.6% | 46%
OC[C@H]1O[C@@H]2O[C@H]3[C@H](O)[C@@H](O)[C@@H](O[C@H]4[C@H](O)[C@@H](O)[C@@H](O[C@H]5[C@H](O)[C@@H](O)[C@@H](O[C@H]6[C@H](O)[C@@H](O)[C@@H](O[C@H]7[C@H](O)[C@@H](O)[C@@H](O[C@H]8[C@H](O)[C@@H](O)[C@@H](O[C@H]1[C@H](O)[C@H]2O)O[C@@H]8CO)O[C@@H]7CO)O[C@@H]6CO)O[C@@H]5CO)O[C@@H]4CO)O[C@@H]3CO [BETADEX] | 96.4% | 96.6% | 96.4% | 96.8%
CC(=O)O[C@H]1C(=O)[C@@]2(C)C([C@H](OC(=O)c3ccccc3)[C@]3(O)C[C@H](OC(=O)[C@H](O)[C@@H](NC(=O)c4ccccc4)c4ccccc4)C(C)=C1C3(C)C)[C@]1(OC(C)=O)CO[C@@H]1C[C@@H]2O.OCC1O[C@H]2OC3C(CO)O[C@@H](OC4C(CO)O[C@@H](OC5C(CO)O[C@@H](OC6C(CO)O[C@@H](OC7C(CO)O[C@@H](OC8C(CO)O[C@@H](OC1[C@@H](O)[C@@H]2O)[C@@H](O)[C@H]8O)[C@@H](O)[C@H]7O)[C@@H](O)[C@H]6O)[C@@H](O)[C@H]5O)[C@@H](O)[C@H]4O)[C@@H](O)[C@H]3O (stereo partly drawn) | 23.1% | 22.3% | 12.2% | 24.2%
COCC1O[C@H]2OC3C(COC)O[C@@H](OC4C(COC)O[C@@H](OC5C(COC)O[C@@H](OC6C(COC)O[C@@H](OC7C(COC)O[C@@H](OC8C(COC)O[C@@H](OC1[C@@H](O)[C@@H]2OC)[C@@H](OC)[C@H]8O)[C@@H](OC)[C@H]7O)[C@@H](O)[C@H]6OC)[C@@H](OC)[C@H]5O)[C@@H](OC)[C@H]4O)[C@@H](OC)[C@H]3O (stereo partly drawn) | 90.2% | 90.6% | 88.9% | 91.5%
